In patent US10745382B2 (BRISTOL-MYERS SQUIBB COMPANY, priority 2015, dated 2020):
Like-named read-outs stand apart in the source and are kept apart here.

Target: T1, PD-1/PD-L1 (Homo sapiens, UniProt Q9NZQ7)
T1 construct: made in house; host or cells: HEK293T
Test: PD-1/PD-L1 Homogenous Time-Resolved Fluorescence (HTRF) binding assay
Conditions: PD-L1-His 10 nM, PD-1-Ig 20 nM, read-out: Range or IC50
Experimental: The ability of the compounds of formula (I) to bind to PD-L1 was investigated using a PD-1/PD-L1 Homogenous Time-Resolved Fluorescence (HTRF) binding assay.
Homogenous Time-Resolved Fluorescence (HTRF) Binding Assay.
All binding studies were performed in an HTRF assay buffer consisting of dPBS supplemented with 0.1% […] bovine serum albumin and 0.05% (v/v) Tween-20. […] HTRF detection was achieved using europium crypate-labeled anti-Ig (1 nM final) and allophycocyanin (APC) labeled anti-His (20 nM final). Antibodies were diluted in HTRF detection buffer and 5 μl was dispensed on top of the binding reaction. […] Additional binding assays were established between the human proteins PD-1-Ig/PD-L2-His (20 & 5 nM, respectively) and CD80-His/PD-L1-Ig (100 & 10 nM, respectively). […]

T1 sequence (Q9NZQ7 with tags, fused parts or gaps): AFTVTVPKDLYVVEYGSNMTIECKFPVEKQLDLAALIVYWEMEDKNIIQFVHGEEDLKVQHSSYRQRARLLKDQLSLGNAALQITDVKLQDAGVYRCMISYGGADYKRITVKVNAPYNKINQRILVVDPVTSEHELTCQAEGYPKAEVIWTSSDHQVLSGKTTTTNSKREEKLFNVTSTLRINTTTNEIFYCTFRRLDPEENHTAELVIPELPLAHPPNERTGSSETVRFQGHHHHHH

Compound | IC50 (value given as range class) | IC50 (numeric IC50)
Cc1c(COc2cc(OCc3cncc(C#N)c3)c(CN3CCCC[C@H]3C(=O)O)cc2Cl)cccc1-c1cccc(OCCCN2CCC(O)C2)c1C (stereo in doubt) [Example 3006, (S)-1-(5-chloro-2-((5-cyanopyridin-3-yl)methoxy)-4-((3′-(3-((R)-3-hydroxypyrrolidin-1-yl)propoxy)-2,2′-dimethyl-[1,1′-biphenyl]-3-yl)methoxy)benzyl)piperidine-2-carboxylic Acid] | 0.21 to 10 nM | 
Cc1c(COc2cc(OCc3cncc(C#N)c3)c(CNCCCN(C)C)cc2Cl)cccc1-c1cccc(OCCCN2CCC(O)C2)c1C (stereo in doubt) [Example 3007, (R)-5-((4-chloro-2-(((3-(dimethylamino)propyl)amino)methyl)-5-((3′-(3-(3-hydroxypyrrolidin-1-yl)propoxy)-2,2′-dimethyl-[1,1′-biphenyl]-3-yl)methoxy)phenoxy)methyl)nicotinonitrile] | 0.21 to 10 nM | 
Cc1c(COc2cc(OCc3cncc(C#N)c3)c(CN[C@@](C)(CO)C(=O)O)cc2Cl)cccc1-c1cccc(OCCCN2CCC(O)C2)c1C#N (stereo in doubt) [Example 3008, (S)-2-((5-chloro-4-((2′-cyano-3′-(3-((R)-3-hydroxypyrrolidin-1-yl)propoxy)-2-methyl-[1,1′-biphenyl]-3-yl)methoxy)-2-((5-cyanopyridin-3-yl)methoxy)benzyl)amino)-3-hydroxy-2-methylpropanoic Acid] | 0.21 to 10 nM | 
Cc1c(COc2cc(OCc3cncc(C#N)c3)c(CN[C@@H](CO)C(=O)O)cc2Cl)cccc1-c1cccc(OCCCN2CCC(O)C2)c1C#N (stereo in doubt) [Example 3009, (S)-2-((5-chloro-4-((2′-cyano-3′-(3-((R)-3-hydroxypyrrolidin-1-yl)propoxy)-2-methyl-[1,1′-biphenyl]-3-yl)methoxy)-2-((5-cyanopyridin-3-yl)methoxy)benzyl)amino)-3-hydroxypropanoic Acid] | 0.21 to 10 nM | 
Cc1c(COc2cc(OCc3cncc(C#N)c3)c(CN[C@](C)(CO)C(=O)O)cc2Cl)cccc1-c1cccc(OCCCN2CCC(O)C2)c1C#N (stereo in doubt) [Example 3010, (R)-2-((5-chloro-4-((2′-cyano-3′-(3-((R)-3-hydroxypyrrolidin-1-yl)propoxy)-2-methyl-[1,1′-biphenyl]-3-yl)methoxy)-2-((5-cyanopyridin-3-yl)methoxy)benzyl)amino)-3-hydroxy-2-methylpropanoic Acid] | 0.21 to 10 nM | 
Cc1c(COc2cc(OCc3cncc(C#N)c3)c(CN[C@@](C)(CO)C(=O)O)cc2Cl)cccc1-c1cccc(OCCCN2CCC(O)C2)c1C(F)(F)F (stereo in doubt) [Example 3011, (S)-2-((5-chloro-2-((5-cyanopyridin-3-yl)methoxy)-4-((3′-(3-((R)-3-hydroxypyrrolidin-1-yl)propoxy)-2-methyl-2′-(trifluoromethyl)-[1,1′-biphenyl]-3-yl)methoxy)benzyl)amino)-3-hydroxy-2-methylpropanoic Acid] |  | 9 nM
Cc1c(COc2cc(OCc3cncc(C#N)c3)c(CN[C@@H](CO)C(=O)O)cc2Cl)cccc1-c1cccc(OCCCN2CCC(O)C2)c1C(F)(F)F (stereo in doubt) [Example 3012, (S)-2-((5-chloro-2-((5-cyanopyridin-3-yl)methoxy)-4-((3′-(3-((R)-3-hydroxypyrrolidin-1-yl)propoxy)-2-methyl-2′-(trifluoromethyl)-[1,1′-biphenyl]-3-yl)methoxy)benzyl)amino)-3-hydroxypropanoic Acid] | 0.21 to 10 nM | 
Cc1c(COc2cc(OCc3cncc(C#N)c3)c(CN[C@](C)(CO)C(=O)O)cc2Cl)cccc1-c1cccc(OCCCN2CCC(O)C2)c1C(F)(F)F (stereo in doubt) [Example 3013, (R)-2-((5-chloro-2-((5-cyanopyridin-3-yl)methoxy)-4-((3′-(3-((R)-3-hydroxypyrrolidin-1-yl)propoxy)-2-methyl-2′-(trifluoromethyl)-[1,1′-biphenyl]-3-yl)methoxy)benzyl)amino)-3-hydroxy-2-methylpropanoic Acid] | 0.21 to 10 nM | 
Cc1c(COc2cc(OCc3cncc(C#N)c3)c(CN3CCCC[C@H]3C(=O)O)cc2Cl)cccc1-c1cccc(OCCCN2CCC(O)C2)c1C(F)(F)F (stereo in doubt) [Example 3014, (S)-1-(5-chloro-2-((5-cyanopyridin-3-yl)methoxy)-4-((3′-(3-((R)-3-hydroxypyrrolidin-1-yl)propoxy)-2-methyl-2′-(trifluoromethyl)-[1,1′-biphenyl]-3-yl)methoxy)benzyl)piperidine-2-carboxylic Acid] | 10 to 100 nM | 
Cc1c(COc2cc(OCc3cncc(C#N)c3)c(CN[C@H](CO)C(=O)O)cc2Cl)cccc1-c1cccc(OCCN2CCOCC2)c1 [Example 1001, (R)-2-((5-chloro-2-((5-cyanopyridin-3-yl)methoxy)-4-((2-methyl-3′-(2-morpholinoethoxy)-[1,1′-biphenyl]-3-yl)methoxy)benzyl)amino)-3-hydroxypropanoic Acid] | 10 to 100 nM | 
Cc1c(COc2cc(OCc3cncc(C#N)c3)c(CN[C@@](C)(CO)C(=O)O)cc2Cl)cccc1-c1cccc(OCCN2CCOCC2)c1 [Example 1002, (S)-2-((5-chloro-2-((5-cyanopyridin-3-yl)methoxy)-4-((2-methyl-3′-(2-morpholinoethoxy)-[1,1′-biphenyl]-3-yl)methoxy)benzyl)amino)-3-hydroxy-2-methylpropanoic Acid] | 10 to 100 nM | 
Cc1c(COc2cc(OCc3cncc(C#N)c3)c(CN[C@H](CO)C(=O)O)cc2Cl)cccc1-c1cccc(OCC(=O)N2CC[C@H](O)C2)c1 [Example 1003, (R)-2-((5-chloro-2-((5-cyanopyridin-3-yl)methoxy)-4-((3′-(2-((S)-3-hydroxypyrrolidin-1-yl)-2-oxoethoxy)-2-methyl-[1,1′-biphenyl]-3-yl)methoxy)benzyl)amino)-3-hydroxypropanoic Acid] | 10 to 100 nM | 
Cc1c(COc2cc(OCc3cncc(C#N)c3)c(CN[C@@](C)(CO)C(=O)O)cc2Cl)cccc1-c1cccc(OCC(=O)N2CC[C@H](O)C2)c1 [Example 1004, (S)-2-((5-chloro-2-((5-cyanopyridin-3-yl)methoxy)-4-((3′-(2-((S)-3-hydroxypyrrolidin-1-yl)-2-oxoethoxy)-2-methyl-[1,1′-biphenyl]-3-yl)methoxy)benzyl)amino)-3-hydroxy-2-methylpropanoic Acid] | 10 to 100 nM | 
Cc1c(COc2cc(OCc3cncc(C#N)c3)c(CN3CCCC[C@H]3C(=O)O)cc2Cl)cccc1-c1cccc(OCC(=O)N2CC[C@H](O)C2)c1 [Example 1005, (S)-1-(5-chloro-2-((5-cyanopyridin-3-yl)methoxy)-4-((3′-(2-((S)-3-hydroxypyrrolidin-1-yl)-2-oxoethoxy)-2-methyl-[1,1′-biphenyl]-3-yl)methoxy)benzyl)piperidine-2-carboxylic Acid] |  | 37 nM
Cc1c(COc2cc(OCc3cncc(C#N)c3)c(CN[C@H](CO)C(=O)O)cc2Cl)cccc1-c1cccc(OCC(=O)N2CC[C@@H](O)C2)c1 [Example 1006, (R)-2-((5-chloro-2-((5-cyanopyridin-3-yl)methoxy)-4-((3′-(2-((R)-3-hydroxypyrrolidin-1-yl)-2-oxoethoxy)-2-methyl-[1,1′-biphenyl]-3-yl)methoxy)benzyl)amino)-3-hydroxypropanoic Acid] | 10 to 100 nM | 
Cc1c(COc2cc(OCc3cncc(C#N)c3)c(CN3CCCC[C@H]3C(=O)O)cc2Cl)cccc1-c1cccc(OCC(=O)N2CC[C@@H](O)C2)c1 [Example 1007, (S)-1-(5-chloro-2-((5-cyanopyridin-3-yl)methoxy)-4-((3′-(2-((R)-3-hydroxypyrrolidin-1-yl)-2-oxoethoxy)-2-methyl-[1,1′-biphenyl]-3-yl)methoxy)benzyl)piperidine-2-carboxylic Acid] |  | 26 nM
Cc1c(COc2cc(OCc3cncc(C#N)c3)c(CN3C[C@@H](O)C[C@H]3C(=O)O)cc2Cl)cccc1-c1cccc(OCC(=O)N2CC[C@@H](O)C2)c1 [Example 1008, (2S,4S)-1-(5-chloro-2-((5-cyanopyridin-3-yl)methoxy)-4-((3′-(2-((R)-3-hydroxypyrrolidin-1-yl)-2-oxoethoxy)-2-methyl-[1,1′-biphenyl]-3-yl)methoxy)benzyl)-4-hydroxypyrrolidine-2-carboxylic Acid] | 10 to 100 nM | 
Cc1c(COc2cc(OCc3cncc(C#N)c3)c(CN[C@H](CO)C(=O)O)cc2Cl)cccc1-c1cccc(OCCC(=O)N2CC[C@@H](O)C2)c1 [Example 1009, (R)-2-((5-chloro-2-((5-cyanopyridin-3-yl)methoxy)-4-((3′-(3-((R)-3-hydroxypyrrolidin-1-yl)-3-oxopropoxy)-2-methyl-[1,1′-biphenyl]-3-yl)methoxy)benzyl)amino)-3-hydroxypropanoic Acid] | 0.21 to 10 nM | 
Cc1c(COc2cc(OCc3cncc(C#N)c3)c(CN[C@@](C)(CO)C(=O)O)cc2Cl)cccc1-c1cccc(OCCC(=O)N2CC[C@@H](O)C2)c1 [Example 1010, (S)-2-((5-chloro-2-((5-cyanopyridin-3-yl)methoxy)-4-((3′-(3-((R)-3-hydroxypyrrolidin-1-yl)-3-oxopropoxy)-2-methyl-[1,1′-biphenyl]-3-yl)methoxy)benzyl)amino)-3-hydroxy-2-methylpropanoic Acid] | 0.21 to 10 nM | 
Cc1c(COc2cc(OCc3cncc(C#N)c3)c(CN3CCCC[C@H]3C(=O)O)cc2Cl)cccc1-c1cccc(OCCC(=O)N2CC[C@@H](O)C2)c1 [Example 1011, (S)-1-(5-chloro-2-((5-cyanopyridin-3-yl)methoxy)-4-((3′-(3-((R)-3-hydroxypyrrolidin-1-yl)-3-oxopropoxy)-2-methyl-[1,1′-biphenyl]-3-yl)methoxy)benzyl)piperidine-2-carboxylic Acid] | 100 to 2000 nM | 
